In patent US10577349B2 (Sanford Burnham Prebys Medical Discovery Institute, priority 2015, dated 2020):

Key:
[1] = target: HCV cap-independent translation; experiment: In vitro translation assay, FF-HCV-Ren construct, cap-independent (Ren luciferase); type: biochemical, rabbit reticulocyte lysates
From the text: (§1) The bicistronic dual-reporter constructs that contain the firefly luciferase (FF) sequence, followed by the (encephalomyocarditis virus) EmCV and Hepatitis C virus (HCV) IRES, respectively, and the Renilla reniformis (Ren) luciferase sequence, has been previously described (Bordeleau Me., et al. Functional characterization of IRESes by an inhibitor of the RNA helicase eIF4A. Nature chemical biology. 2006; 2:213-20). For measurement of translation from the FF-EmCV-Ren and FF-HCV-Ren constructs, rabbit reticulocyte lysates (RRL) (Life Technologies, Carlsbad, Calif., USA) and the Dual-Glo (Promega, Madison, Wis., USA) read-outs were chosen. Two μl rabbit reticulocyte lysates mixed with Translation Mix 20× (-Met) and Translation Mix 20× (-Leu) in a ratio of 1:1 were pre-incubated with test compounds in 1536-well plates for 1 h at room temperature. Then, translation was started by adding 0.1 μg RNA per well and incubated for 2 h at 30° C. After a short chill phase, 2.5 μl Dual-Glo reagent 1 was added to each well and incubated for 10 min before reading the FF luciferase activity with the ViewLux uHTS Microplate Imager (Perkin Elmer, Waltham, Mass., USA). Directly after, 2.5 μl Dual-Glo reagent 2 was dispensed to each well and incubated at room temperature for 10 min before reading the Ren luciferase activity on the ViewLux. To exclude the possibility that test compounds interfere with any of the luciferase activities, a counter assay was performed in which the compounds were added after the completion of the in vitro translation.

[2] = target: EmCV Cap-dependent translation; experiment: In vitro translation assay, FF-EmCV-Ren construct, cap-dependent (FF luciferase); type: biochemical, rabbit reticulocyte lysates
From the text: as §1

[3] = target: EmCV Cap-independent translation; experiment: In vitro translation assay, FF-EmCV-Ren construct, cap-independent (Ren luciferase); type: biochemical, rabbit reticulocyte lysates
From the text: as §1

[4] = test system: A375; experiment: 48 h Cytotoxicity A375; type: cell-based; settings: Homo sapiens, A-375
[5] = target: HCV cap-dependent translation; experiment: In vitro translation assay, FF-HCV-Ren construct, cap-dependent (FF luciferase); type: biochemical, rabbit reticulocyte lysates
From the text: as §1

| SMILES | IC50 [1] [µM] | IC50 [2] [µM] | IC50 [3] [µM] | IC50 [4] [µM] | IC50 [5] [µM] |
| --- | --- | --- | --- | --- | --- |
| O=C(/C=C/c1ccncc1)c1c(-c2ccccc2)c2cc(Cl)ccc2[nH]c1=O [Compound 28, 6-Chloro-4-phenyl-3-(3-pyridin-4-yl-acryloyl)-1H-quinolin-2-one] | 2 to 10 | 2 to 10 | 2 to 10 | < 2 | 2 to 10 |
| O=C(/C=C/c1ccccn1)c1c(-c2cncc(F)c2)c2cc(Cl)ccc2[nH]c1=O [Compound 100, 3-((2E)-3-(2-pyridyl)prop-2-enoyl)-6-chloro-4-(5-fluoro(3-pyridyl))hydroquinolin-2-one] | 10 to 20 | 10 to 20 | 10 to 20 | 2 to 10 | 10 to 20 |
| O=C(/C=C/c1ccoc1)c1c(-c2ccccc2)c2cc(Cl)ccc2[nH]c1=O [Compound 50, 6-Chloro-3-(3-furan-3-yl-acryloyl)-4-phenyl-1H-quinolin-2-one] | > 20 | 2 to 10 | 10 to 20 | < 2 | > 20 |
| O=C(/C=C/c1nc2ccccc2[nH]1)c1c(-c2ccccc2)c2cc(C(F)(F)F)ccc2[nH]c1=O [Compound 19, 3-(3-1H-Benzoimidazol-2-yl-acryloyl)-4-phenyl-6-trifluoromethyl-1H-quinolin-2-one] | 10 to 20 | 2 to 10 | 2 to 10 | 2 to 10 | 10 to 20 |
| O=C(/C=C/c1ccccc1)c1c(-c2ccccc2)c2cc(Cl)ccc2[nH]c1=O [Compound 31, 6-Chloro-4-phenyl-3-(3-phenyl-acryloyl)-1H-quinolin-2-one] | 2 to 10 | 2 to 10 | 2 to 10 | 2 to 10 | 2 to 10 |
| O=C(/C=C/c1nc2ccccc2[nH]1)c1c(-c2ccc(OC(F)(F)F)cc2)c2cc(Cl)ccc2[nH]c1=O [Compound 2, 3-(3-1H-Benzoimidazol-2-yl-acryloyl)-6-chloro-4-(4-trifluoromethoxy-phenyl)-1H-quinolin-2-one] | 2 to 10 | 2 to 10 | 2 to 10 | < 2 | 2 to 10 |
| O=C(/C=C/c1cc(Cl)ccn1)c1c(-c2ccccc2)c2cc(Cl)ccc2[nH]c1=O [Compound 71, 3-[(2E)-3-(4-chloro(2-pyridyl))prop-2-enoyl]-6-chloro-4-phenylhydroquinolin-2-one] | > 20 | > 20 | > 20 | 2 to 10 | 10 to 20 |
| COc1ccnc(/C=C/C(=O)c2c(-c3ccccc3)c3cc(Cl)ccc3[nH]c2=O)c1 [Compound 75, 3-[(2E)-3-(4-methoxy(2-pyridyl))prop-2-enoyl]-6-chloro-4-phenylhydroquinolin-2-one] | 2 to 10 | 2 to 10 | 2 to 10 | < 2 | 2 to 10 |
| O=C(/C=C/c1ccccn1)c1c(-c2cncc(Cl)c2)c2cc(Cl)ccc2[nH]c1=O [Compound 102, 3-((2E)-3-(2-pyridyl)prop-2-enoyl)-6-chloro-4-(5-chloro(3-pyridyl))hydroquinolin-2-one] | 10 to 20 | 10 to 20 | 10 to 20 | 2 to 10 | 10 to 20 |
| Cn1c(/C=C/C(=O)c2c(-c3ccccc3)c3cc(Cl)ccc3[nH]c2=O)cc2ccccc21 [Compound 29, 6-Chloro-3-[3-(1-methyl-1H-indol-2-yl)-acryloyl]-4-phenyl-1H-quinolin-2-one] | > 20 | > 20 | > 20 | < 2 | 10 to 20 |
| Cc1ccc(-c2c(C(=O)/C=C/c3nc4ccccc4[nH]3)c(=O)[nH]c3ccc(Cl)cc23)cc1 [Compound 4, 3-(3-1H-Benzoimidazol-2-yl-acryloyl)-6-chloro-4-p-tolyl-1H-quinolin-2-one] | 2 to 10 | 2 to 10 | 2 to 10 | 2 to 10 | 2 to 10 |
| Nc1ccc2[nH]c(=O)c(C(=O)/C=C/c3nc4ccccc4[nH]3)c(-c3ccccc3)c2c1 [Compound 15, 6-Amino-3-(3-1H-benzoimidazol-2-yl-acryloyl)-4-phenyl-1H-quinolin-2-one] | > 20 | 10 to 20 | 10 to 20 | > 20 | 10 to 20 |
| O=C(/C=C/c1ccccn1)c1c(-c2ccc(Cl)cc2)c2cc(Cl)ccc2[nH]c1=O [Compound 82, 3-((2E)-3-(2-pyridyl)prop-2-enoyl)-6-chloro-4-(4-chlorophenyl)hydroquinolin-2-one] | 2 to 10 | 2 to 10 | 2 to 10 | 2 to 10 | 2 to 10 |
| CCn1c(/C=C/C(=O)c2c(-c3ccccc3)c3cc(Cl)ccc3[nH]c2=O)nc2ccccc21 [Compound 58, 6-Chloro-3-[3-(1-ethyl-1H-benzoimidazol-2-yl)-acryloyl]-4-phenyl-1H-quinolin-2-one] | 2 to 10 | 2 to 10 | 2 to 10 | 2 to 10 | 2 to 10 |
| Cc1ccc(-c2c(C(=O)/C=C/c3ccccn3)c(=O)[nH]c3ccc(Cl)cc23)cc1 [Compound 86, 3-((2E)-3-(2-pyridyl)prop-2-enoyl)-6-chloro-4-(4-methylphenyl)hydroquinolin-2-one] | 2 to 10 | 2 to 10 | 2 to 10 | 2 to 10 | 2 to 10 |
| O=C(/C=C/c1cncc(F)c1)c1c(-c2cncc(F)c2)c2cc(Cl)ccc2[nH]c1=O [Compound 99, 3-[(2E)-3-(5-fluoro(3-pyridyl))prop-2-enoyl]-6-chloro-4-(5-fluoro(3-pyridyl))hydroquinolin-2-one] | 2 to 10 | 10 to 20 | 2 to 10 | 2 to 10 | 10 to 20 |
| Cc1ccc(/C=C/C(=O)c2c(-c3ccccc3)c3cc(Cl)ccc3[nH]c2=O)nc1 [Compound 48, 6-Chloro-3-[3-(5-methyl-pyridin-2-yl)-acryloyl]-4-phenyl-1H-quinolin-2-one] | 10 to 20 | 2 to 10 | 2 to 10 | 2 to 10 | 2 to 10 |
| O=C(/C=C/c1ccccc1)c1c(-c2cccnc2)c2cc(Cl)ccc2[nH]c1=O [Compound 7, 6-Chloro-3-(3-phenyl-acryloyl)-4-pyridin-3-yl-1H-quinolin-2-one] | 10 to 20 | 2 to 10 | 10 to 20 | 10 to 20 | 10 to 20 |
| O=C(/C=C/c1nc2ccccc2[nH]1)c1c(-c2ccc(C(F)(F)F)cc2)c2cc(Cl)ccc2[nH]c1=O [Compound 1, 3-(3-1H-Benzoimidazol-2-yl-acryloyl)-6-chloro-4-(4-trifluoromethyl-phenyl)-1H-quinolin-2-one] | 2 to 10 | 2 to 10 | 2 to 10 | 2 to 10 | 2 to 10 |
| O=C(/C=C/c1ccc(F)c(F)c1)c1c(-c2ccccc2)c2cc(Cl)ccc2[nH]c1=O [Compound 40, 6-Chloro-3-[3-(3,4-difluoro-phenyl)-acryloyl]-4-phenyl-1H-quinolin-2-one] | 2 to 10 | 2 to 10 | 2 to 10 | < 2 | 2 to 10 |
| O=C(/C=C/c1nc2ccccc2[nH]1)c1c(-c2cccnc2)c2cc(Cl)ccc2[nH]c1=O [Compound 6, 3-(3-1H-Benzoimidazol-2-yl-acryloyl)-6-chloro-4-pyridin-3-yl-1H-quinolin-2-one] | 10 to 20 | 2 to 10 | 2 to 10 | > 20 | 10 to 20 |
| Cn1c(/C=C/C(=O)c2c(-c3ccccc3)c3cc(Cl)ccc3n(C)c2=O)nc2ccccc21 [Compound 59, 6-Chloro-1-methyl-3-[3-(1-methyl-1H-benzoimidazol-2-yl)-acryloyl]-4-phenyl-1H-quinolin-2-one] | 2 to 10 | 2 to 10 | 2 to 10 | 2 to 10 | 2 to 10 |
| O=C(/C=C/c1cc2ccccc2s1)c1c(-c2ccccc2)c2cc(Cl)ccc2[nH]c1=O [Compound 36, 3-(3-Benzo[b]thiophen-2-yl-acryloyl)-6-chloro-4-phenyl-1H-quinolin-2-one] | 2 to 10 | 2 to 10 | 10 to 20 | 2 to 10 | 2 to 10 |
| N#Cc1cncc(/C=C/C(=O)c2c(-c3ccccc3)c3cc(Cl)ccc3[nH]c2=O)c1 [Compound 72, 5-[(1E)-3-(6-chloro-2-oxo-4-phenyl(3-hydroquinolyl))-3-oxoprop-1-enyl]pyridine-3-carbonitrile] | 2 to 10 | 2 to 10 | 2 to 10 | < 2 | 2 to 10 |
| N#Cc1ccc(-c2c(C(=O)/C=C/c3ccccn3)c(=O)[nH]c3ccc(Cl)cc23)cc1 [Compound 90, 4-[3-((2E)-3-(2-pyridyl)prop-2-enoyl)-6-chloro-2-oxo-4-hydroquinolyl]benzenecarbonitrile] | 2 to 10 | 2 to 10 | 2 to 10 | < 2 | 10 to 20 |
